# Values quoted from earlier work, collected in patent US12440501B2, “Cannabinoid compositions and methods of use thereof for immune modulation” (SRIN Therapeutics, Inc., priority 2019, dated 2025).
# How the values were obtained:
# xenograft tumors = conditions: regardless of Ras/Raf pathway deregulation
# [1] = system: BRAF(V600E), BRAF(wild type), c-RAF, VEGFR2, PDGFR, CSF1R, RET, c-KIT, SRC, STE20; conditions: range over several intracellular kinases
# VEGFR expression = conditions: doses of 1-5 mg/kg
# [2] = mice, 120 mg/kg i.p.
# HCT116 [3] = system: HCT116
# [4] = system: ICAM-1 expression on A549; conditions: in vitro
# GPR55 = GPR55 (Homo sapiens, UniProt Q9Y2T6)
# HCT116 [5] = system: HCT116; remark: listed apart in the source
# melanoma = conditions: share of melanoma patients
# GPR55, sequence (Q9Y2T6 whole entry, species assumed): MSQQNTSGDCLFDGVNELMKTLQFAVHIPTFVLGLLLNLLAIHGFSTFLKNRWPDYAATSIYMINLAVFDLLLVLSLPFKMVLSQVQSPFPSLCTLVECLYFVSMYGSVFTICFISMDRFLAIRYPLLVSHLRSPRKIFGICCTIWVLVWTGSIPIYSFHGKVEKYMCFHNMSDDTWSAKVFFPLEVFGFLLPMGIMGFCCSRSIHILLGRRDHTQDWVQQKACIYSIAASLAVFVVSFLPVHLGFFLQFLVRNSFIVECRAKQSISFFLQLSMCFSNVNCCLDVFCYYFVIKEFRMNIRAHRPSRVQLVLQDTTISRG
compound,measurement,setting,value
Cn1cnc2c(F)c(Nc3ccc(Br)cc3F)c(C(=O)NOCCO)cc21 [MEK162],inhibition of growth of xenograft tumors,xenograft tumors,highly effective in inhibiting growth of xenograft tumors
C=C(C)[C@@H]1CCC(C)=C[C@H]1c1c(O)cc(CCCCC)cc1O [cannabidiol],VEGFR expression,VEGFR expression,significantly reduce VEGFR expression
same,peak plasma levels,[2],14.3 µg/mL
same,plasma levels,[2],14.3 µg/mL
same,anti-proliferative effect,HCT116 [3],significant anti-proliferative effect
same,ICAM-1 expression,[4],upregulates ICAM-1 expression
same,inhibition of A549 invasion and metastasis,A549,profound inhibition
same,apoptosis,DLD-1,induces apoptosis
same,activity at GPR55,GPR55,antagonist
same,apoptosis,HCT116 [5],induces apoptosis
same,anti-proliferative effect,Caco-2,significant anti-proliferative effect
ipilimumab: FDA-approved immune checkpoint inhibitor targeting CTLA-4,responses in melanoma patients,melanoma,~50%
nivolumab: FDA-approved immune checkpoint inhibitor targeting PD-1,responses in melanoma patients,melanoma,~50%
pembrolizumab: FDA-approved immune checkpoint inhibitor targeting PD-1,responses in melanoma patients,melanoma,~50%
